Test results reported in patent US5310559A, “Device for controlled release and delivery to mammalian tissue of pharmacologically active agents incorporating a rate controlling member which comprises an alkylene-alkyl acrylate copolymer” (Hercon Laboratories Corporation, priority 1992, dated 1994).

Tests used:
[1] = Flux through human skin from articles of FIG. 4 (Example V); details: reservoir 5% drug
[2] = even at higher clonidine concentrations
[3] = cited from earlier work
[4] = Release of timolol from polymeric reservoir with and without ethylene-methyl acrylate membranes (Example IV); assay type: physicochemical
Source text: FIG. 11 is a graph of timolol release versus time (time versus accumulation) from an ADMEX® 760 reservoir without the use of a control membrane as set forth in Example IV. The graph indicated by reference numeral 111 is the graph of mg/cm^2 of timolol release versus hours. The basis of this graph is more specifically set forth in Example IV.
FIG. 13 is a series of graphs (time versus flux) of timolol release rate through control membranes consisting of copolymers of ethylene and methyl acrylate; 5% and 7% with 1.25 mils thickness and 2.5 mils thickness as more specifically set forth in Example IV. The graph indicated by reference numeral 130 is the graph for a membrane having 7% methyl acrylate repeating monomeric units and a membrane of thickness 1.25 mils. The graph indicated by reference numeral 131 is the graph for use of a membrane containing 5% methyl acrylate repeating monomeric units with a thickness of 1.25 mils. The graph indicated by reference numeral 132 is the graph for the use of a membrane containing 7% methyl acrylate repeating monomeric units and having a thickness of 2.5 mils. The graph indicated by reference numeral 133 is the graph for a membrane containing 5% methyl acrylate repeating monomeric units and having a thickness of 2.5 mils.

[5] = system of European Patent 186,071; cited from earlier work

SMILES: CC(C)(C)NCC(O)c1cc(Cl)c(N)c(Cl)c1 (centres unmarked) [CLENBUTEROL]
- Flux Thru Human Skin ([1]; with membrane 1.25 mil EMA (11% MA)): 15.1 ug/cm^2 /day
- Flux Thru Human Skin ([1]; without membrane, 35% PVC resin, 60% ADMEX 760): 34.5 ug/cm^2 /day

SMILES: Clc1cccc(Cl)c1NC1=NCCN1 [clonidine]
- effect of copolymeric EMA membranes on drug diffusion rates in the transdermal patch [2]: lower the drug diffusion rates in the transdermal patch even at higher clonidine concentrations
- solubility in mineral oil [3]: approximately 0.5 mg/ml

SMILES: CC(C)(C)NC[C@H](O)COc1nsnc1N1CCOCC1 [timolol]
- release of timolol from the reservoir through ethylene-methyl acrylate membranes ([4]; 5% and 7% methyl acrylate, 1.25 and 2.5 mils thickness): Relatively controlled and constant release of the drug was obtained for a period of seven days
- release of timolol from a polymeric reservoir into an aqueous sink ([4]; in the absence of a membrane, ADMEX 760 reservoir): very high and followed typical first order kinetics
- release behavior of timolol from a polymeric reservoir ([4]; use of ethylene methyl acrylate membranes): altered by the use of ethylene methyl acrylate membranes
- irritation to the skin on transdermal application [5]: substantially no irritation to the skin
